Tests used:
[1] = Check of Glutaraldehyde content when combined with BAK at the CMC; assay type: physicochemical
From the text: The multi-level mechanism of action is as follows. The Glutaraldehyde produces an inherent bacteriocidal effect. BAK lowers surface tension and thus aids in the spread of the Glut on the biofilm covered surface and serves as a binding agent between the Glut and the application surface. The BAK spreads the Glutaraldehyde on the cell surface and increases depth of penetration. Thus, the BAK and Glutaraldehyde are mutually synergistic in attacking and achieving the desired kill effect. Because BAK is a quaternary ammonium salt one would suppose that it would react adversely with the Glutaraldehyde and cause aldehyde consumption. For this reason it became mandatory to check the Glutaraldehyde content and determine if there was a decrease at the CMC. […] This is likely correct due to the small BAK concentration necessary to reach the CMC. […] As a matter of fact it acted synergistically to enhance cidal effects due to its surfactant action.

[2] = test system: E. Coli, P. aeruginosa, salmonella typhii, and kiebsiella; assay: MIC of disinfectants by agar dilution; assay type: cell-based; details: individually determined
Description: In addition to the foregoing, E. Coli, P. aeruginosa, salmonella typhii, and kiebsiella were tested using selective media and biochemical means. Disk diffusion methods were used testing disinfectant resistance by measuring zones of inhibition after eighteen hours of incubation. MICs of disinfectants were determined by agar dilution. […] The preferred determined exposure is actually 4× of Glut to BAK as determined by log reduction effectiveness. This was supported by running an MIC (inhibitory) versus a MBC (bactericidal) test. Using the McFarland standard on E. coli, with the combination Glut/BAK, the result was that the bactericidal amount was 2× the inhibitory amount in ppm. This was done via serial dilutions on media Nutrient Broth.

[3] = test system: biofilm communities of E. faecalis; assay: Biofilm formation / LIVE/DEAD staining assay on E. faecalis biofilm communities; assay type: cell-based; details: components tested separately
From the text: In experiments, biofilm communities of E. faecalis were created following the techniques of Bergenholtz and Chavez, J. Endo. Coating (2010), using the present formulation. […] This was confirmed by a staining LIVE/DEAD assay. […] Clearly, Glutaraldehyde alone is not as effective as BAK, nor vice versa. Together in “proper ratio” the formula is outstanding at reducing biofilm as well as killing the necessary bacteria. This synergy was confirmed by the fractional inhibitory concentration index (FICI). The FICI for a synergistic mixture, using checkerboard, gave the combination of Glut/BAK a 0.35 FICI which is inhibitory. [Greene et al., App Env Micro Vol 72: 5254-5259 (2006)]. Mixtures according to this test are synergistic when the lowest FICI is below 0.8 therefore giving credence to the present concept. Synergy of Glut/BAK is known but has not been fully tested since the tested material has been Glut/Quats (dual chains) and not BAK. […] The present determination of 4:1 (Glut:BAK), FICI independently determined, corrects this missing component to make an effective formulation. Strong synergy has been shown between Glut/BAK (FICI 0.35). The biofilm reduction/penetration ability of BAK combined with the broad spectrum biocidal activities of Glut enable and achieve, at lower concentrations, due to synergy, the destruction of the SRBs in oil/gas as well the pertinent bacteria in health care.
This was confirmed by the staining LIVE/DEAD assay. […] Glutaraldehyde alone is not as effective as BAK. Together in proper ratio the formula is outstanding at reducing biofilm as well as killing the necessary bacteria, and provides an excellent synergistic complimentary approach to eliminating the bacterial/biofilm problem.

biofilm = details: Flow Cytometry, MetaMorph image analysis; cited from earlier work
[4] = Pendant drop surface tension measurement (Tate's equation); assay type: physicochemical; details: pendant drop method, ten drops
From the text: BAK's ability to repel biofilm formation as well as penetrate is based upon the physico/chemical and steric changes provoked by hydrophobic changes and electrostatic repulsion. This is due to the positively charged nitrogen that reacts with the acidic phospholipids in the cell membrane. This is the area of penetration bringing along the Glut (cidal component) increasing surface pressure which decreases the adhesive potential by affecting the osmoregularity of bacterial adhesins. […] The BAK molecules at the proper concentration are saturated or at the critical micelle concentration (CMC). When the BAK is above the CMC and the surface tension is constant the best wetting properties are achieved. The stated BAK concentration is important since low doses can actually stimulate metabolic reactions as well as cause resistance. Again the proper importance of “concentration ratios” develops the full synergistic effect. In an example the pendant drop method was used to determine surface tension activity of BAK. Ten drops were measured with a precision balance to calculate surface energy. Tate's equation was used for calculation. It was concluded that the surface tension was reduced by approximately 53%. This illustrates that the addition of the BAK to the formulation permits a better spreading of the solution.

Row | Compound | reduction in Glutaraldehyde content when combined with BAK [1] | MIC [2] | kill (LIVE/DEAD staining) [3] | penetration of biofilm (biofilm) | bio-volume reduction [3] | surface tension reduction [4]
1 | O=CCCCC=O [Glutaraldehyde] | did not show any reduction | 0.3% | 45% | little or no penetration of biofilm | – | –
2 | benzalkonium chloride [BAK] | – | 0.13% | less so | peripheral penetration followed by inward migration | over 70 fold | approximately 53%
